What all share (format): cell-based, mouse
One experiment deals with Akt phosphorylation. Put plainly: Western blot of Akt phosphorylation in mature 3T3-L1 adipocytes. As to conditions: compound only group and insulin co-treatment group. On the procedure:
To further elucidate the pathway involved in 1e-mediated glucose uptake promotion, AMPK and Akt phosphorylation in mature 3T3-L1 adipocytes was evaluated via Western blotting following treatment with 5 or 10 µM 1e for 1 h.
(§1) The expression levels of glucose uptake-related proteins were determined via Western blotting, as previously described. In brief, differentiated 3T3-L1 cells were plated in six-well plates at a 1.5 × 10^4 cells/well density in a final volume of 2 mL. Then, the cells were incubated in the presence of DMSO or different concentrations of the compounds and harvested using a RIPA buffer (Sigma-Aldrich, Saint Louis, MS, USA) and a protease inhibitor cocktail (Roche Korea, Seoul, Korea) after 1 h of incubation. Equivalent amounts of proteins (20 µg) from each lysate were separated by 10% SDS-PAGE and transferred onto PVDF membranes (Merk KgaA, Darmstadt, Germany), where they were maintained for 120 min at 200 mA. The membranes were blocked with 5% skim milk for 1 h at room temperature in 0.1% TBST and then probed with primary antibodies at different concentrations in 0.1% BSA overnight at 4 °C according to the manufacturer’s instructions. Secondary antibodies were added to the membranes at a concentration of 1:2000 for 1 h at room temperature, and immunoreactive bands were detected via ECL (GE Healthcare Korea Co., Ltd., Incheon, Korea). […]
In general terms: Immunoblotting shows a protein as a band on a membrane.

The test system of a further experiment is AMPK phosphorylation. Put plainly: Western blot of AMPK phosphorylation in C2C12 myotubes. On the procedure:
To further investigate the mechanism of action of 1e, we evaluated its effects on AMPK and AKT phosphorylation in C2C12 myotubes. […] In line with the results obtained in 3T3-L1 cells, in the absence of insulin, 1e had no effects on basal p-Akt expression levels (Figure 6A).
as §1, with “The membranes were blocked with 5% skim milk for 1 h at room temperature in 0.1% TBST and then probed with primary antibodies at different concentrations in 0.1% BSA overnight at 4 °C according to the manufacturer’s instructions.” left out

The next experiment relates to 3T3-L1 adipocytes. Put plainly: 2-NBDG glucose uptake assay in differentiated 3T3-L1 adipocytes. As to conditions: 10 µM, plate reader fluorescence. The procedure:
PTPN9 inhibitors have been reported to increase glucose uptake. To clarify the antidiabetic effects of GA analogs, a 2-NBDG (a fluorescent glucose probe) uptake assay was performed using differentiated 3T3-L1 adipocytes and C2C12 myotubes. After 16 h of starvation, differentiated 3T3-L1 adipocytes were incubated with compounds 1e and 1f for another 1 h. The cells were subsequently incubated with 2-NBDG for 30 min and washed with PBS before quantifying the fluorescence of 2-NBDG taken up by the cells. The 2-NBDG uptake-increasing effects of GA and its analogs in 3T3-L1 cells were monitored via confocal microscopy. The blank group was set in the absence of 2-NBDG but was treated with DMSO to determine the basal fluorescence levels in 3T3-L1 adipocytes (Figure 4A, Basal); in the negative control group, 3T3-L1 adipocytes were treated with 2-NBDG and DMSO for the evaluation of basal glucose uptake levels (Figure 4A, DMSO). […] Furthermore, to quantify 2-NBDG uptake, fluorescence intensity (Ex/Em = 485/535 nm) was measured using a plate reader. […] After incubation, the cells were washed with pre-cold PBS, and the fluorescence intensity was measured using a fluorescence microplate reader (Victor^TM X4, PerkinElmer, Waltham, MA, USA) (Ex/Em = 485/535 nm). […]

Molecules are shown by their SMILES.

For `CCCCCCCCCCCCCOc1cccc(O)c1C(=O)O` [Compound 1e], in the experiment on Akt phosphorylation, the Akt phosphorylation levels result is recorded as “no significant change”. For the same compound, the AMPK phosphorylation result in the experiment with AMPK phosphorylation is listed as “significantly upregulated AMPK phosphorylation in a concentration-dependent manner”. Besides, the “2-NBDG uptake increase compared to the DMSO control” value with 3T3-L1 adipocytes is recorded as “approximately 2.0 fold”.

Values taken from PMC8999917, “Structure–Activity Relationship of Synthetic Ginkgolic Acid Analogs for Treating Type 2 Diabetes by PTPN9 Inhibition” (International Journal of Molecular Sciences, 2022).
